Laboratory results reported in patent US20110294843A1, “ADMINISTRATION SCHEME OF POLAR OPIOID METABOLITES FOR POST-OPERATIVE PAIN MANAGEMENT” (PAION UK Limited, priority 2008, published 2011).

System: patients following major abdominal surgery
Assay: M6G022 study: analgesic efficacy and tolerability of M6G and morphine following major abdominal surgery
Procedure: Pain relief, nausea and emesis were recorded for 24 to 48 hours after start of the patient controlled analgesia.
The study site personnel (with the exception of the pharmacy); representatives of the sponsoring company; and the organisation involved in monitoring, data management, or other aspects of the study were blinded to the study treatment. The use of midazolam, temazepam, zopiclone or other short-acting pre-operative anxiolytics was allowed. All patients received a standardised general anaesthetic consisting of propofol induction, with either isoflurane or sevoflurane maintenance. These inhalational agents are associated with a similar risk of PONV. Nitrous oxide was not allowed because of its emetic effects, and the risk of an imbalance in its use. An initial bolus of 1-3 μg/kg of fentanyl or 0.1-0.3 μg/kg of sufentanyl followed by further doses as required, was used for pre- and peri-operative analgesia. Post-operative analgesia was provided by the study drug.
The investigator could administer up to 5 ml of PCA study drug, on no more than two occasions in each 24 hour post-operative period, as rescue medication if the patient was in uncontrolled pain. […] The patients stayed on PCA for a minimum of 24 hours following surgery, but could continue up to 48 hours if clinically indicated.
No prophylactic antiemetic was given, although iv ondansetron (4 mg/2 ml) was available if the patient experienced severe nausea, or immediately following emesis. If this was ineffective further doses of ondansetron; or other agents such as cyclizine, prochlorperazine or perphenazine; were allowed.
Pain intensity at rest was assessed by the patients using the VRS-11 scale at baseline, 15, 30 and 45 minutes and 1, 2, 4, 6, 9, 12, 15, 18, 21 and 24 hours after the start of PCA. A numerical scale was chosen because of the practical difficulty for post-operative patients of completing a visual analogue scale. If the patient remained on PCA after 24 hours, the pain scores were recorded every 8 hours up to 48 hours. In addition, at the end of the study the patients and observers were asked to assess the acceptability of their pain relief over the entire study using a 5 point rating global scale ranging from very poor (1) to excellent (5). […] The total consumption of study drugs was calculated.
Emesis risk factors of female gender; history of motion sickness or PONV; or smoking status were recorded at screening. Post-operative nausea was assessed by the patient using a 4 point ordinal scale (none, mild, moderate, severe) and occurrence of vomiting or dry retching recorded (yes/no; and if yes, the number of episodes) pre-operatively (Day −1), at baseline, and at 1, 2, 4, 6, 9, 12, 15, 18, 21, 24, 32, 40 and 48 hours after administration of the test analgesic. Nausea and vomiting were also combined in a single scoring system (postoperative nausea & vomiting, PONV), with an episode of vomiting or dry retching being scored as a 3 (severe) on the nausea scale.
Sedation was assessed using a combination of a binary question (sleepy, yes or no) and a 3 point ordinal scale (mild, moderate, severe) if the patient was sedated. All adverse events were recorded, along with concomitant medication use, with particular attention being paid to the use of anti-emetics.
The Intention to Treat (ITT) set of patients comprised all those who had been exposed to study medication at least once. This analysis set was the basis for the main efficacy and all safety and demographic analyses. Data were double entered using interactive verification into a CLINTRIAL database (Version 3.3.3, Phase Forward, Waltham, Mass., USA), and analysed using SAS (version 8.2, SAS Institute Inc., Cary, N.C., USA).

`CN1CC[C@]23c4c5ccc(O)c4O[C@H]2[C@@H](OC2OC(C(=O)O)C(O)C(O)C2O)C=CC3[C@H]1C5` (stereo partly drawn) [M6G, (5α,6α)-7,8-Didehydro-4,5-epoxy-3-hydroxy-17-methylmorphinan-β-yl-β-D-glucopyranosiduronic acid] was tested, and the “reduction of AUC for vomiting and dry retching in favour of M6G” value (0-24 hours) was 32.3%, the “mean totals of PCA demands” value (4-48 h) was 53.1 and the “reduction of AUC for vomiting and dry retching in favour of M6G” value (6-24 hours) was 34.2%. The “Reduction of PONV AUC, M6G vs morphine” value (AUC 0-6 h) was 27.0%, the “Reduction of PONV AUC, M6G vs morphine” value (AUC 0-12 h) was 26.3% and the “Reduction of PONV AUC, M6G vs morphine” value (AUC 0-24 h) was 24.3%. For the same molecule, the “Reduction of PONV AUC, M6G vs morphine” value (AUC 6-24 h) was 28.5%, the “Reduction of PONV AUC, M6G vs morphine” value (AUC 12-24 h) was 24.5% and the “Reduction of PONV AUC, M6G vs morphine” value (AUC 24-48 h) was 10.3%. For the same molecule, the “patients with sedation score recorded as severe” value (baseline) was 20.9%, the patients sedated (baseline (when given control of the PCA button)) was 75.7% and the “mean totals of PCA demands” value (early post-operative period (up to 4 hours)) was 33.5. For the same molecule, the “magnitude of reduction of PONV” value (initial 24 hours post-operatively) was 24-29%, the “dose required to achieve comfort initially” value (loading and recovery doses before PCA) was 45.0 mg/70 kg and the “difference between the adjusted means of pain intensity AUCs for M6G and morphine” value (over the 24 hours, VRS-11) was “+3.318”. For the same molecule, the “pain intensity compared with morphine” value (whole 24 hour period) was “non-inferior to morphine”.
